Assay results from patent US20250170101A1, “MONOACYLGLYCEROL LIPASE INHIBITORS AND USE THEREOF FOR THE TREATMENT AND MANAGEMENT OF PAIN AND RELATED CONDITIONS” (Psy Therapeutics, Inc., priority 2021, published 2025).

Experiment: Pharmacokinetic study of compounds in mice, Example 25
Assay type: in vivo, male C57BL/6 mice
Conditions: Brain, Oral, 5 mg/kg
Description: Healthy male C57BL/6 mice (8-12 weeks old) weighing between 17 to 35 g were procured from Global, India. Temperature and humidity were maintained at 22±3° C. and 30-70%, respectively and illumination was controlled to give a sequence of 12 hr light and 12 hr dark cycle. Temperature and humidity were recorded by auto-controlled data logger system. All the animals were provided laboratory rodent diet. Reverse osmosis water treated with ultraviolet light was provided ad libitum.
Protocol A: Twenty-four male mice were divided into two groups as; Group 1: 30 mg/kg/IP; Plasma and brain; Number of animals=12; Animal #1-12. Group 2: 30 mg/kg/PO; Plasma and brain; Number of animals=12; Animal #13-24. […] All samples were processed for analysis by protein precipitation using acetonitrile and analyzed with fit-for-purpose LC/MS/MS method (LLOQ—2.02 ng/mL for plasma and 6.06 ng/g for brain). Pharmacokinetic parameters were calculated using the non-compartmental analysis tool of Phoenix WinNonlin®.
Protocol B: Thirty six mice were included into the study and divided in to three groups as Group 1 (n=12), Group 2 (n=12) and Group 3 (n=12) with n=2 mice per time-point design. […] Plasma and brain samples were quantified by fit-for-purpose LC-MS/MS method (LLOQ: 1.01 ng/mL for plasma and 2.02 ng/mL for brain). […]

O=C(c1cc(O)ccc1F)N1CC2(CC(n3cc(C(F)(F)F)c(-c4ccccc4F)n3)C2)C1 (single isomer, unassigned) [Compound 473, (2-fluoro-5-hydroxyphenyl){6-[3-(o-fluorophenyl)-4-(trifluoromethyl)-1-pyrazolyl]-2-aza-2-spiro[3.3]heptyl}methanone]
AUClast: 464.42 ng·h/mL
